The target of experiment [1] is T1, Human immunodeficiency virus type 1 integrase (Human immunodeficiency virus 1, UniProt Q7ZJM1). The experiment in a line: Inhibition of Human immunodeficiency virus 1 integrase strand transfer activity after 30 mins by polyacrylamide gel electrophoresis.
The target in experiment [2] is T1, Human immunodeficiency virus type 1 integrase. As to the kind of experiment: Inhibition of Human immunodeficiency virus 1 integrase 3'-processing activity after 30 mins by polyacrylamide gel electrophoresis.

T1 sequence (Q7ZJM1 whole entry): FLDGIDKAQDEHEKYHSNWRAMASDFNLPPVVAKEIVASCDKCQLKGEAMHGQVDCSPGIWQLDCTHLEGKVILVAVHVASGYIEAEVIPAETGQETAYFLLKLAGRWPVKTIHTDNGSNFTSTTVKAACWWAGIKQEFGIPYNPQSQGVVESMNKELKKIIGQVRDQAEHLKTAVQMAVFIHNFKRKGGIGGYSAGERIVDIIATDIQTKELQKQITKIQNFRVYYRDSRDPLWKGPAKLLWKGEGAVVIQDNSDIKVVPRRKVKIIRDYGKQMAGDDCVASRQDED

Regarding `CC(C)(C)OC(=O)NCCCn1c(C(C)(C)C)nc(C(=O)NCc2ccc(F)cc2)c(O)c1=O`, the IC50 in experiment [1] and in experiment [2] was greater than 20 µM throughout.
Consider `CC(C)(C)c1nc(C(=O)NCc2ccc(F)cc2)c(O)c(=O)n1CCCN`, for which the IC50 in experiment [1] and in experiment [2] was greater than 20 µM each time.
Take `CC(C)(C)c1nc(C(=O)NCc2ccc(F)cc2)c(O)c(=O)n1CCCNC(=O)C1CC1` [listing 1 of 2 here]: the IC50 in experiment [1] was determined as 3 µM.
In the case of `CC(C)(C)c1nc(C(=O)NCc2ccc(F)cc2)c(O)c(=O)n1CCCNC(=O)c1ccccc1`, the values for the IC50 in experiment [1] and in experiment [2] were 13 µM and greater than 20 µM, respectively.
`CC(=O)NCCCn1c(C(C)(C)C)nc(C(=O)NCc2ccc(F)cc2)c(O)c1=O`: the IC50 was 2 µM in experiment [1] and greater than 20 µM in experiment [2].
In the case of `CCC(=O)NCCCn1c(C(C)(C)C)nc(C(=O)NCc2ccc(F)cc2)c(O)c1=O` [listing 1 of 2 here], half-maximal inhibition in experiment [1] (IC50) was put at 6 µM.
As to `CCCC(=O)NCCCn1c(C(C)(C)C)nc(C(=O)NCc2ccc(F)cc2)c(O)c1=O`, the values for the IC50 in experiment [1] and in experiment [2] were 20 µM and greater than 20 µM, respectively.
The compound `CC(C)(C)c1nc(C(=O)NCc2ccc(F)cc2)c(O)c(=O)n1CCCNS(=O)(=O)C1CC1` [listing 1 of 2 here] showed an IC50 in experiment [1] of 20 µM.
`CCS(=O)(=O)NCCCn1c(C(C)(C)C)nc(C(=O)NCc2ccc(F)cc2)c(O)c1=O`: the concentration for half-maximal inhibition (IC50) in experiment [1] is 7 µM; in experiment [2], greater than 20 µM.
For `CC(C)(C)c1nc(C(=O)NCc2ccc(F)cc2)c(O)c(=O)n1CCCNC(=O)c1cccs1`, in that order: 14 µM and greater than 20 µM.
Consider `CC(C)(C)c1nc(C(=O)NCc2ccc(F)cc2)c(O)c(=O)n1CCCNC(=O)Cc1cccs1`, for which the figures for the IC50 in experiment [1] and in experiment [2] were 20 µM and greater than 20 µM, respectively.
The corresponding values for `CC(C)(C)c1nc(C(=O)NCc2ccc(F)cc2)c(O)c(=O)n1CCCNC(=O)c1ccco1` are 3 µM and greater than 20 µM.
`Cn1cnc(S(=O)(=O)NCCCn2c(C(C)(C)C)nc(C(=O)NCc3ccc(F)cc3)c(O)c2=O)c1`: the IC50 was 12 µM in experiment [1] and greater than 20 µM in experiment [2].
Take `CC(C)(C)C(=O)NCCCn1c(C(C)(C)C)nc(C(=O)NCc2ccc(F)cc2)c(O)c1=O`: the values for the IC50 in experiment [1] and in experiment [2] were 20 µM and greater than 20 µM, respectively.
The corresponding values for `CC(=O)Nc1ccc(S(=O)(=O)NCCCn2c(C(C)(C)C)nc(C(=O)NCc3ccc(F)cc3)c(O)c2=O)cc1` are 8 µM and greater than 20 µM.
For the compound `CC(C)(C)c1nc(C(=O)NCc2ccc(F)cc2)c(O)c(=O)n1CCCNC(=O)C1CC1` [listing 2 of 2 here], the results for the IC50 in experiment [1] and in experiment [2] were 5 µM and greater than 20 µM, respectively.
The corresponding values for `CCC(=O)NCCCn1c(C(C)(C)C)nc(C(=O)NCc2ccc(F)cc2)c(O)c1=O` [listing 2 of 2 here] are 4 µM and greater than 20 µM.
As for `CC(C)(C)c1nc(C(=O)NCc2ccc(F)cc2)c(O)c(=O)n1CCCNS(=O)(=O)c1ccccc1`, the half-maximal inhibitory concentration (IC50) in experiment [1] is 20 µM; in experiment [2], greater than 20 µM.
Turning to `CC(C)(C)c1nc(C(=O)NCc2ccc(F)cc2)c(O)c(=O)n1CCCNS(=O)(=O)C1CC1` [listing 2 of 2 here], the half-maximal inhibitory concentration (IC50) in experiment [1] was 9 µM; in experiment [2] it was greater than 20 µM.
Take `CC(C)(C)c1nc(O)c(O)c(C(=O)NCc2ccc(F)cc2)n1`: the IC50 in experiment [1] was 2 µM; in experiment [2], greater than 20 µM.
